Measurements reported in patent publication US20180185801A1, “AMPHOTERIC ESTER SULFONATES” (Eastman Chemical Company, priority 2014, published 2018).
Where two headings read alike, the source gives them in different places.

Key:
[1] = Foaming properties, ASTM 1173-07 foam height test; type: physicochemical
Excerpt: The Standard Test Method for Foaming Properties of Surface-Active Agents (ASTM 1173-07) was used to determine the foaming properties of the ester sulfonates 1 described herein. This method generates foam under low-agitation conditions and is generally used for moderate- and high-foam surfactants. This test gathers data on initial foam height and foam decay.
Foam decay provides information on foam stability.
The apparatus for carrying out this test includes a jacketed column and a pipet. The jacketed column serves as a receiver, while the pipet delivers the surface-active solution. Solutions of each surface-active agent were prepared. The amphoteric ester sulphonate solution to be tested was added to the receiver (50 mL) and to the pipet (200 mL). The pipet was positioned above the receiver and opened. As the solution fell and made contact with the solution in the receiver, foam was generated. When the pipet was empty, the time was noted and an initial foam height was recorded. The foam height was recorded each minute for five minutes. Exact size specifications for the glassware can be found in ASTM 1173-07. The foam height results for each ester sulfonate 1 and representative standards are listed below in Tables 1 (0.1% concentration) and 2 (1% concentration).

[2] = Critical micelle concentration, fluorimetric determination with DPH dye; type: physicochemical
Method: The critical micelle concentration (CMC) was also determined for each compound. The CMC is the concentration of surfactant above which micelles spontaneously form. CMC is an important characteristic of a surfactant. At surfactant concentrations below the CMC, surface tension varies widely with surfactant concentration. At concentrations above the CMC, surface tension remains fairly constant. A lower CMC indicates less surfactant is needed to saturate interfaces and form micelles. Typical CMC values are less than 1 weight percent (10,000 ppm).
The fluorimetric determination of CMC described by Chattopadhyay and London (Analytical Biochemistry, Vol. 139, pp. 408-412 (1984)) was used to obtain the critical micelle concentrations found in Table 3 below. This method employs the fluorescent dye 1,6-diphenyl-1,3,5-hexatriene (DPH) in a solution of the surface-active agent. The analysis is based on differences in fluorescence upon incorporation of the dye into the interior of the micelles. As the solution exceeds CMC, a large increase in fluorescence intensity is observed.

[3] = buffer, pH 4.5
Method: The resulting mixture was placed in a 50° C. oven. Samples were taken periodically and analyzed for the amount of 3-(lauroyloxypropyldimethylammonio)-2-hydroxypropanesulfonate remaining by quantitative HPLC.
Samples were taken periodically and analyzed for the amount of 3-(cocoyloxypropyldimethylammonio)acetate remaining by quantitative HPLC.

CCCCCCCCCCCC(=O)OC(C)CC[N+](C)(C)CC(O)CS(=O)(=O)[O-] (centres unmarked) [Example 27, 3-(3-(lauroyloxy)-1-butyldimethylammonio-1-yl)-2-hydroxypropanesulfonate]
Foam height (cm) at time t (min) ([1]; 1 g/L (0.1 weight %), t = 0 min): 16.5 cm | Foam height (cm) at time t (min) ([1]; 1 g/L (0.1 weight %), t = 1 min): 16.0 cm | Foam height (cm) at time t (min) ([1]; 1 g/L (0.1 weight %), t = 2 min): 15.5 cm | Foam height (cm) at time t (min) ([1]; 1 g/L (0.1 weight %), t = 3 min): 15.5 cm | Foam height (cm) at time t (min) ([1]; 1 g/L (0.1 weight %), t = 4 min): 15.5 cm | Foam height (cm) at time t (min) ([1]; 1 g/L (0.1 weight %), t = 5 min): 15.0 cm | Foam height (cm) at time t (min) ([1]; 10 g/L (1.0 weight %), t = 0 min): 17.5 cm | Foam height (cm) at time t (min) ([1]; 10 g/L (1.0 weight %), t = 1 min): 17.0 cm | Foam height (cm) at time t (min) ([1]; 10 g/L (1.0 weight %), t = 2 min): 17.0 cm | Foam height (cm) at time t (min) ([1]; 10 g/L (1.0 weight %), t = 3 min): 16.5 cm | Foam height (cm) at time t (min) ([1]; 10 g/L (1.0 weight %), t = 4 min): 16.0 cm | Foam height (cm) at time t (min) ([1]; 10 g/L (1.0 weight %), t = 5 min): 15.5 cm | CMC [2]: 0.060 mM | CMC (ppm) [2]: 26.4 ppm

CCCCCCCCCCCC(=O)OCCC[N+](C)(C)CC(O)CS(=O)(=O)[O-] (centres unmarked) [Example 31, 3-(lauroyloxypropyldimethylammonio)-2-hydroxypropanesulfonate]
Percent Amphoteric Remaining ([3]; 0 h): 100% | Percent Amphoteric Remaining ([3]; 336 h): 98% | Percent Amphoteric Remaining ([3]; 1008 h): 98% | Percent Amphoteric Remaining ([3]; 1344 h): 94% | Percent Amphoteric Remaining ([3]; 2016 h): 95%

CCCCCCCCCCCCOS(=O)(=O)O.N [ammonium lauryl sulfate]
CMC [2]: 1.38 mM | CMC (ppm) [2]: 392 ppm

CCCCCCCCCCCCOS(=O)(=O)[O-].[Na+] [sodium lauryl sulfate]
CMC [2]: 8.27 mM | CMC (ppm) [2]: 2386 ppm
